This passage reports Activity results from patent US8044073B2, “Aminobenzimidazoles and benzimidazoles as inhibitors of respiratory syncytial virus replication” (Tibotec Pharmaceuticals, priority 2003, dated 2011).

The test system of this experiment is Respiratory Syncytial Virus. The experiment is described as follows: In vitro screening for activity against RSV (tetrazolium-based colorimetric assay, protection against viral cytopathology). The conditions noted are these: Table 1; RSV in HeLa cells, MTT, seven days after infection; pEC50 = -log of EC50 in molar units. The class given is cell-based. An excerpt: The percent protection against cytopathology caused by viruses (antiviral activity or EC50) achieved by tested compounds and their cytotoxicity (CC50) are both calculated from dose-response curves. The selectivity of the antiviral effect is represented by the selectivity index (SI), calculated by dividing the CC50 (cytotoxic dose for 50% of the cells) by the EC50 (antiviral activity for 50% of the cells). The tables in the above experimental part list the category to which each of the prepared compounds belong: Compounds belonging to activity category “A” have a pEC50 (−log of EC50 when expressed in molar units) equal to or more than 7. Compounds belonging to activity category “B” have a pEC50 value between 6 and 7.
Automated tetrazolium-based colorimetric assays were used for determination of EC50 and CC50 of test compounds. Flat-bottom, 96-well plastic microtiter trays were filled with 180 μl of Eagle's Basal Medium, supplemented with 5% FCS (0% for FLU) and 20 mM Hepes buffer. Subsequently, stock solutions (7.8× final test concentration) of compounds were added in 45 μl volumes to a series of triplicate wells so as to allow simultaneous evaluation of their effects on virus- and mock-infected cells. Five five-fold dilutions were made directly in the microtiter trays using a robot system. Untreated virus controls, and HeLa cell controls were included in each test. Approximately 100 TCID50 of Respiratory Syncytial Virus was added to two of the three rows in a volume of 50 μl. The same volume of medium was added to the third row to measure the cytotoxicity of the compounds at the same concentrations as those used to measure the antiviral activity. After two hours of incubation, a suspension (4×10^5 cells/ml) of HeLa cells was added to all wells in a volume of 50 μl. The cultures were incubated at 37° C. in a 5% CO2 atmosphere. Seven days after infection the cytotoxicity and the antiviral activity was examined spectrophotometrically. To each well of the microtiter tray, 25 μl of a solution of MTT (3-(4,5-dimethylthiazol-2-yl)-2,5-diphenyltetrazolium bromide) was added. The trays were further incubated at 37° C. for 2 hours, after which the medium was removed from each cup. Solubilization of the formazan crystals was achieved by adding 100 μl 2-propanol. Complete dissolution of the formazan crystals were obtained after the trays have been placed on a plate shaker for 10 min. Finally, the absorbances were read in an eight-channel computer-controlled photometer (Multiskan MCC, Flow Laboratories) at two wavelengths (540 and 690 nm). The absorbance measured at 690 nm was automatically subtracted from the absorbance at 540 nm, so as to eliminate the effects of non-specific absorption.
The percent protection against cytopathology caused by viruses (antiviral activity or EC50) achieved by tested compounds and their cytotoxicity (CC50) were both calculated from dose-response curves. The selectivity of the antiviral effect is represented by the selectivity index (SI), calculated by dividing the CC50 (cytotoxic dose for 50% of the cells) by the EC50 (antiviral activity for 50% of the cells).
As to `Cc1cccc(NCc2ccc3nc(N)n(Cc4nc(C)ccc4O)c3c2)c1` [Compound 1, 2-[2-Amino-6-(mtolylamino-methyl)-benzoimidazol-1-ylmethyl]-6-methyl-pyridin-3-ol], the Activity amounted to 8.6. Under `Cc1ccc(O)c(Cn2c(N)nc3ccc(CNc4cc(Cl)cc(Cl)c4)cc32)n1` [Compound 2] stands 8.6; under `Cc1ccc(O)c(Cn2c(N)nc3ccc(CNc4cccc(Br)c4)cc32)n1` [Compound 3], 8.6; under `Cc1ccc(O)c(Cn2c(N)nc3ccc(CNc4cccc(Cl)c4)cc32)n1` [Compound 5], 8.5. Turning to `C#Cc1cccc(NCc2ccc3nc(N)n(Cc4nc(C)ccc4O)c3c2)c1` [Compound 6], the Activity turned out to be 8.5. On to `CC(=O)O.COc1ccccc1NCc1ccc2nc(N)n(Cc3nc(C)ccc3O)c2c1` [Compound 7], for which the Activity amounted to 8.5. As for `Cc1cc(C)cc(NCc2ccc3nc(N)n(Cc4nc(C)ccc4O)c3c2)c1` [Compound 9], the figure is 8.4; as for `Cc1ccc(O)c(Cn2c(N)nc3ccc(CNc4ccc(S(N)(=O)=O)cc4)cc32)n1` [Compound 10], 8.4; as for `Cc1ccc(O)c(Cn2c(N)nc3ccc(CNc4ccccc4CO)cc32)n1` [Compound 11], 8.4. Under `CC(=O)O.CCc1ccccc1NCc1ccc2nc(N)n(Cc3nc(C)ccc3O)c2c1` [Compound 12] stands 8.4; under `Cc1ccc(O)c(Cn2c(N)nc3ccc(CNc4ccc(C#N)cc4)cc32)n1` [Compound 13], 8.4; under `CCOC(=O)c1ccc(NCc2ccc3nc(N)n(Cc4nc(C)ccc4O)c3c2)c(O)c1` [Compound 14], 8.3. `CSc1cccc(NCc2ccc3nc(N)n(Cc4nc(C)ccc4O)c3c2)c1` [Compound 15] returned an Activity of 8.3. Under `CCc1cccc(CC)c1NCc1ccc2nc(N)n(Cc3nc(C)ccc3O)c2c1` [Compound 17] stands 8.1; under `CCc1cccc(NCc2ccc3nc(N)n(Cc4nc(C)ccc4O)c3c2)c1` [Compound 18], 8.0; under `Cc1ccc(O)c(Cn2c(N)nc3ccc(CNc4cccc(C)c4C)cc32)n1` [Compound 19], 8.0.

In the case of `Cc1ccc(O)c(Cn2c(N)nc3ccc(CNc4ccccc4Br)cc32)n1` [Compound 20], the Activity is 8.0. As for `Cc1ccc(O)c(Cn2c(N)nc3ccc(CNc4ccccc4)cc32)n1` [Compound 21], the figure is 7.9. Under `Cc1ccc(O)c(Cn2c(N)nc3ccc(CNc4cccc(F)c4)cc32)n1` [Compound 22] stands 7.9. Under `Cc1ccc(O)c(Cn2c(N)nc3ccc(CNc4ccc(C)c(C)c4)cc32)n1` [Compound 23] stands 7.9; under `CCOc1cccc(NCc2ccc3nc(N)n(Cc4nc(C)ccc4O)c3c2)c1` [Compound 24], 7.9; under `Cc1ccc(O)c(Cn2c(N)nc3ccc(CNc4ccccc4C#N)cc32)n1` [Compound 25], 7.9. Compound `Cc1ccc(O)c(Cn2c(N)nc3ccc(CNc4cccc(CO)c4)cc32)n1` [Compound 26] yielded an Activity of 7.9.

In turn, `Cc1ccc(O)c(Cn2c(N)nc3ccc(CNc4cccc(NS(C)(=O)=O)c4)cc32)n1` [Compound 27] gave an Activity of 7.9.

`COc1ccc(NCc2ccc3nc(N)n(Cc4nc(C)ccc4O)c3c2)cc1F` [Compound 28] returned an Activity of 7.8.

With `Cc1ccc(O)c(Cn2c(N)nc3ccc(CNc4cccc(Cl)c4C)cc32)n1` [Compound 29], the Activity is 7.8.

On to `Cc1ccc(O)c(Cn2c(N)nc3ccc(CNc4cccc(SC(F)(F)F)c4)cc32)n1` [Compound 30], for which the Activity amounted to 7.8. As for `Cc1ccc(O)c(Cn2c(N)nc3ccc(CNc4ccccc4C(C)C)cc32)n1` [Compound 32], the figure is 7.8; as for `Cc1ccc(O)c(Cn2c(N)nc3ccc(CNc4cccc(S(=O)(=O)CCO)c4)cc32)n1` [Compound 33], 7.8; as for `COc1cc(NCc2ccc3nc(N)n(Cc4nc(C)ccc4O)c3c2)cc(OC)c1` [Compound 34], 7.7. Under `CC(=O)Nc1cccc(NCc2ccc3nc(N)n(Cc4nc(C)ccc4O)c3c2)c1` [Compound 35] stands 7.7. `Cc1ccc(O)c(Cn2c(N)nc3ccc(CNc4ccc5c(c4)CCC5)cc32)n1` [Compound 36] yielded an Activity of 7.7. The compound `Cc1ccc(O)c(Cn2c(N)nc3ccc(CNc4cc(Br)cc(C(F)(F)F)c4)cc32)n1` [Compound 37] returned an Activity of 7.7. As to `Cc1ccc(O)c(Cn2c(N)nc3ccc(CNc4ccccc4C(N)=O)cc32)n1` [Compound 39], the Activity was 7.7. Under `Cc1ccc(O)c(Cn2c(N)nc3ccc(CNc4ccccc4F)cc32)n1` [Compound 40] stands 7.7; under `Cc1ccc(O)c(Cn2c(N)nc3ccc(CNc4cccc(C(=N)N)c4)cc32)n1` [Compound 41], 7.7; under `CC(=O)c1cccc(NCc2ccc3nc(N)n(Cc4nc(C)ccc4O)c3c2)c1` [Compound 42], 7.6. Take `Cc1ccc(O)c(Cn2c(N)nc3ccc(CNc4ccc5c(c4)OCCO5)cc32)n1` [Compound 43]: the Activity came to 7.6. As for `Cc1ccc(O)c(Cn2c(N)nc3ccc(CNc4cccc5cccnc45)cc32)n1` [Compound 44], the figure is 7.6; as for `Cc1ccc(O)c(Cn2c(N)nc3ccc(CNc4cc(F)cc(C(F)(F)F)c4)cc32)n1` [Compound 45], 7.6; as for `Cc1ccc(O)c(Cn2c(N)nc3ccc(CNc4cccc(CC(=O)O)c4)cc32)n1` [Compound 46], 7.6. As for `CCCCNS(=O)(=O)c1cccc(NCc2ccc3nc(N)n(Cc4nc(C)ccc4O)c3c2)c1` [Compound 47], the figure is 7.6.

Regarding `Cc1ccc(O)c(Cn2c(N)nc3ccc(CNc4ccccc4C(F)(F)F)cc32)n1` [Compound 48], the Activity was 7.6. Under `Cc1ccc(O)c(Cn2c(N)nc3ccc(CNc4cc(F)cc(F)c4)cc32)n1` [Compound 49] stands 7.5. For the compound `CCc1cc(Br)ccc1NCc1ccc2nc(N)n(Cc3nc(C)ccc3O)c2c1` [Compound 52], the Activity came out at 7.5. Under `CC(=O)Nc1ccc(NCc2ccc3nc(N)n(Cc4nc(C)ccc4O)c3c2)cc1` [Compound 53] stands 7.5; under `Cc1ccc(O)c(Cn2c(N)nc3ccc(CNc4ccc(Br)cc4)cc32)n1` [Compound 54], 7.5; under `Cc1ccc(O)c(Cn2c(N)nc3ccc(CNc4ccc(F)c(F)c4)cc32)n1` [Compound 55], 7.4.

The compound `Cc1ccc(O)c(Cn2c(N)nc3ccc(CNc4ccc(Br)c(C)c4)cc32)n1` [Compound 56] showed an Activity of 7.4. As for `COc1cc(NCc2ccc3nc(N)n(Cc4nc(C)ccc4O)c3c2)cc(C(F)(F)F)c1` [Compound 57], the figure is 7.4. As for `CC(=O)O.Cc1ccc(O)c(Cn2c(N)nc3ccc(CNc4ccccc4-c4ccccc4)cc32)n1` [Compound 58], the figure is 7.4. As for `CCOC(=O)c1cccc(NCc2ccc3nc(N)n(Cc4nc(C)ccc4O)c3c2)c1` [Compound 59], the figure is 7.3; as for `Cc1ccc(O)c(Cn2c(N)nc3ccc(CNc4ccc(C)c(F)c4)cc32)n1` [Compound 60], 7.3.
